Experiments:
[1] = biological target: anaerobic (class III) ribonucleotide reductase from Thermotoga maritima (Thermotoga maritima); experiment: crystal structure; tmNrdD dimer in the asymmetric unit, space group P2_(1); apo forms with glycerol, MES or citrate in the active site, and complexes with dATP or dATP/CTP; resolutions from 2.4 Å to 1.92 Å
tmNrdD = biological target: T1, tmNrdD (Thermotoga maritima, UniProt Q9WYL6); experiment: X-ray crystallography; assay type: binding
T1 construct: gene TM_0385; recombinant in E. coli, homodimer; residues to 651, Gly621 radical site
T1 sequence (Q9WYL6 entry or part of it): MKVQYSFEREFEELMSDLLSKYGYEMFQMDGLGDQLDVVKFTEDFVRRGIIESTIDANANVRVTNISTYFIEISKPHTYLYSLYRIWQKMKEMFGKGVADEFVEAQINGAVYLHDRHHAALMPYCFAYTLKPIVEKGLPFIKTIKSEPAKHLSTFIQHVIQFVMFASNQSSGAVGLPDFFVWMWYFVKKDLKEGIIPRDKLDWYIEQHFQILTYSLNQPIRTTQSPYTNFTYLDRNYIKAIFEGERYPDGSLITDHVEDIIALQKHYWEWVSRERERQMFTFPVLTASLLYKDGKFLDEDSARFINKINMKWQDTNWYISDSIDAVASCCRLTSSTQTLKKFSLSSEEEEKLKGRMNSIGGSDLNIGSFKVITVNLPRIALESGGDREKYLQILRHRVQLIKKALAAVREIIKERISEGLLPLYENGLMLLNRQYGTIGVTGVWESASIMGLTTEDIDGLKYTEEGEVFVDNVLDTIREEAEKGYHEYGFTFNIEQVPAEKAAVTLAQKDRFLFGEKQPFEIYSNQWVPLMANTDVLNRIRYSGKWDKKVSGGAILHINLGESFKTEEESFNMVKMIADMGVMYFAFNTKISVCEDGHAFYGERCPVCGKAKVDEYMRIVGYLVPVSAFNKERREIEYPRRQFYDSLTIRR

Work on “anaerobic (class III) ribonucleotide reductase from Thermotoga maritima (enzyme)” yielded a stoichiometry N [1] of 2.
For `Nc1ncnc2c1ncn2[C@H]1C[C@H](O)[C@@H](COP(=O)(O)OP(=O)(O)OP(=O)(O)O)O1` [dATP], the X-ray crystallography (tmNrdD; allosteric specificity effector site at dimer interface, Mg2+ (Mn2+ substituted), dATP alone 4COL, also with CTP 4COJ, soak or co-crystal 0.5 mM dATP) was “The effector dATP binds at the dimer interface, along the length of helices αA and αB”.
`Nc1ccn([C@@H]2O[C@H](COP(=O)(O)OP(=O)(O)OP(=O)(O)O)[C@@H](O)[C@H]2O)c(=O)n1` [CTP] was tested, and the X-ray crystallography (tmNrdD; active site, with effector dATP, soak or co-crystal 2 mM CTP, also reduced to dCTP in assay with MBP-tmNrdG and T. maritima cell extract) was “represents the first structure of an anaerobic, class III RNR with a substrate”.

Reference: PMC4493059, “The Crystal Structure of Thermotoga maritima Class III Ribonucleotide Reductase Lacks a Radical Cysteine Pre-Positioned in the Active Site” (PLoS ONE, 2015)
